Measurements: PMC10721329, “Quisinostat is a brain-penetrant radiosensitizer in glioblastoma” (JCI Insight, 2023)
Several values for one entry are separate records, joined by “and”; a condition that tells them apart may be missing. Equal values may be shown once.

Tests used:
Assay in all cases: CellTiter-Glo dose-response cell viability assay
Assay type in all cases: cell-based, human
[1] = test system: GB239 patient-derived GSC line; details: Homo sapiens
Protocol: (§1) QST (JNJ-26481585) is a second-generation hydroxamic acid harboring remarkable selectivity toward class I HDACs, with a biochemical IC50 of 0.1 nM for HDAC1 ([13]). […] To determine the cytotoxic effects of QST, we performed a dose-titration cell viability assay in 7 patient-derived GSC lines (BT145, GB187, GB239, GB282, GB71, GB82, and GB126) and 1 long-term serum-grown human GBM cell line (U87). Because GBMs display a high degree of intratumoral heterogeneity, we used GSCs derived from both primary and recurrent GBMs that harbored distinct genetic mutations or aberrations, growth rates, MGMT promoter methylation status, and gene expression profiles (Supplemental Figure 1; supplemental material available online with this article; https://doi.org/10.1172/jci.insight.167081DS1). Cell lines were treated with various concentrations of QST (10–1000 nM), and cell viability was measured 3–5 days later (Figure 1, A and B). […] Treatment with QST at the IC50 induced significant inhibition of proliferation (Ki67) and an increase in programmed cell death (cleaved caspase 3) in 2 different GSC lines (Figure 1, C and D). Additional analyses confirmed that QST induces apoptosis after short-term treatment through increased staining of the apoptotic marker annexin V (Figure 2A) and cell cycle arrest (in G2- or S-phase; Figure 2B and Supplemental Figure 1B).
(§2) GSCs were seeded in laminin-coated tissue culture–treated 96-well plates (clear bottom, white plate; Corning) at a density of 1000–5000 cells per well (cell line dependent) in GSC media. U87-MG were seeded using their normal growth conditions without laminin (10% bovine calf serum in DMEM). All cells were incubated at 37°C and allowed to adhere overnight. The next day, cells were treated with incremental concentrations of QST (Selleckchem; 0, 10, 25, 50, 100, 250, 500, and 1000 nM) diluted in media. Cells treated without QST were treated with DMSO diluted in media. Following treatment with QST, cells were grown for 3 to 5 days (cell line dependent), and cell viability was measured and quantified. All cell viability measurements were performed using the CellTiter-Glo luminescent cell viability assay (Promega) following the manufacturer’s instructions. For the sulforhodamine B colorimetric assay for cytotoxicity, the protocol was performed as described elsewhere ([33]). All cell viability results represent the mean of at least 3 biological replicates, each containing 3 technical replicates.

[2] = test system: GB187 patient-derived GSC line
Protocol: as §1, §2

[3] = test system: GB282 patient-derived GSC line
Protocol: as §1, §2

U87 GBM cell line = test system: U87 GBM cell line
Protocol: as §1, §2

With `Cn1cc(CNCC2CCN(c3ncc(C(=O)NO)cn3)CC2)c2ccccc21` [QST, quisinostat] as the compound, how does the viability at 0.1 µM ([1]; GB239x3, QST 100 nM (log[nM] 2), read-out: Cell viability (fraction of DMSO control)) read?
Its viability at 0.1 µM is 26%.

And the viability at 0.25 µM ([1]; GB239x3, QST 250 nM (log[nM] 2.39794), read-out: Cell viability (fraction of DMSO control))?
Its viability at 0.25 µM is 15.6%.

And the viability at 0.5 µM ([1]; GB239x3, QST 500 nM (log[nM] 2.69897), read-out: Cell viability (fraction of DMSO control))?
Its viability at 0.5 µM is 11.2%.

And the viability at 1 µM ([1]; GB239x3, QST 1000 nM (log[nM] 3), read-out: Cell viability (fraction of DMSO control))?
The viability at 1 µM was 8.92%.

And the IC50 ([1]; GB239, 3-5 days)?
Its IC50 is 41 nM.

What about the “Cell viability (fraction of DMSO control)” value ([2]; GB187x, QST 10 nM (log[nM] 1)) of the same compound?
Its value is 0.9255 and 0.9282.

What about the “Cell viability (fraction of DMSO control)” value ([2]; GB187x, QST 25 nM (log[nM] 1.39794)) of the same compound?
The value was 0.8647 and 0.8308.

And the “Cell viability (fraction of DMSO control)” value ([2]; GB187x, QST 50 nM (log[nM] 1.69897))?
Its value is 0.7684 and 0.7163.

What about the “Cell viability (fraction of DMSO control)” value ([2]; GB187x, QST 100 nM (log[nM] 2)) of the same compound?
Its value is 0.6258 and 0.5995.

What about the “Cell viability (fraction of DMSO control)” value ([2]; GB187x, QST 250 nM (log[nM] 2.39794)) of the same compound?
The value was 0.5316 and 0.4983.

What about the “Cell viability (fraction of DMSO control)” value ([2]; GB187x, QST 500 nM (log[nM] 2.69897)) of the same compound?
Its value is 0.4749 and 0.464.

And the “Cell viability (fraction of DMSO control)” value ([2]; GB187x, QST 1000 nM (log[nM] 3))?
The value was 0.4026 and 0.4385.

And the viability at 0.01 µM ([2]; Homo sapiens, GB187x, QST 10 nM (log[nM] 1), read-out: Cell viability (fraction of DMSO control))?
The viability at 0.01 µM was 88.5%.

And the viability at 0.025 µM ([2]; Homo sapiens, GB187x, QST 25 nM (log[nM] 1.39794), read-out: Cell viability (fraction of DMSO control))?
Its viability at 0.025 µM is 79.9%.

And the viability at 0.05 µM ([2]; Homo sapiens, GB187x, QST 50 nM (log[nM] 1.69897), read-out: Cell viability (fraction of DMSO control))?
Its viability at 0.05 µM is 70.8%.

And the viability at 0.1 µM ([2]; Homo sapiens, GB187x, QST 100 nM (log[nM] 2), read-out: Cell viability (fraction of DMSO control))?
The viability at 0.1 µM was 59%.

What about the viability at 0.25 µM ([2]; Homo sapiens, GB187x, QST 250 nM (log[nM] 2.39794), read-out: Cell viability (fraction of DMSO control)) of the same compound?
Its viability at 0.25 µM is 53.2%.

And the viability at 0.5 µM ([2]; Homo sapiens, GB187x, QST 500 nM (log[nM] 2.69897), read-out: Cell viability (fraction of DMSO control))?
The viability at 0.5 µM was 47.1%.

And the viability at 1 µM ([2]; Homo sapiens, GB187x, QST 1000 nM (log[nM] 3), read-out: Cell viability (fraction of DMSO control))?
Its viability at 1 µM is 43.9%.

What about the IC50 ([2]; Homo sapiens, GB187, 3-5 days) of the same compound?
Its IC50 is 100 nM.

And the “Cell viability (fraction of DMSO control)” value ([3]; GB282xTdT, QST 10 nM (log[nM] 1))?
The value was 0.8875 and 0.8957.

And the “Cell viability (fraction of DMSO control)” value ([3]; GB282xTdT, QST 25 nM (log[nM] 1.39794))?
The value was 0.7531 and 0.7488.

And the “Cell viability (fraction of DMSO control)” value ([3]; GB282xTdT, QST 50 nM (log[nM] 1.69897))?
The value was 0.6063 and 0.5741.

And the “Cell viability (fraction of DMSO control)” value ([3]; GB282xTdT, QST 100 nM (log[nM] 2))?
The value was 0.3901 and 0.3391.

What about the “Cell viability (fraction of DMSO control)” value ([3]; GB282xTdT, QST 250 nM (log[nM] 2.39794)) of the same compound?
Its value is 0.1846 and 0.1521.

And the “Cell viability (fraction of DMSO control)” value ([3]; GB282xTdT, QST 500 nM (log[nM] 2.69897))?
Its value is 0.1138 and 0.08263.

And the “Cell viability (fraction of DMSO control)” value ([3]; GB282xTdT, QST 1000 nM (log[nM] 3))?
The value was 0.07483 and 0.05455.

And the viability at 0.01 µM ([3]; Homo sapiens, GB282xTdT, QST 10 nM (log[nM] 1), read-out: Cell viability (fraction of DMSO control))?
The viability at 0.01 µM was 98.4%.

And the viability at 0.025 µM ([3]; Homo sapiens, GB282xTdT, QST 25 nM (log[nM] 1.39794), read-out: Cell viability (fraction of DMSO control))?
The viability at 0.025 µM was 84.2%.

What about the viability at 0.05 µM ([3]; Homo sapiens, GB282xTdT, QST 50 nM (log[nM] 1.69897), read-out: Cell viability (fraction of DMSO control)) of the same compound?
The viability at 0.05 µM was 68%.

What about the viability at 0.1 µM ([3]; Homo sapiens, GB282xTdT, QST 100 nM (log[nM] 2), read-out: Cell viability (fraction of DMSO control)) of the same compound?
Its viability at 0.1 µM is 43.8%.

And the viability at 0.25 µM ([3]; Homo sapiens, GB282xTdT, QST 250 nM (log[nM] 2.39794), read-out: Cell viability (fraction of DMSO control))?
Its viability at 0.25 µM is 22%.

What about the viability at 0.5 µM ([3]; Homo sapiens, GB282xTdT, QST 500 nM (log[nM] 2.69897), read-out: Cell viability (fraction of DMSO control)) of the same compound?
Its viability at 0.5 µM is 13.2%.

And the viability at 1 µM ([3]; Homo sapiens, GB282xTdT, QST 1000 nM (log[nM] 3), read-out: Cell viability (fraction of DMSO control))?
Its viability at 1 µM is 8.37%.

What about the IC50 ([3]; Homo sapiens, GB282, 3-5 days) of the same compound?
Its IC50 is 66 nM.

And the viability at 0.01 µM (U87 GBM cell line; Homo sapiens, U87LN, QST 10 nM (log[nM] 1), read-out: Cell viability (fraction of DMSO control))?
The viability at 0.01 µM was 83.5%.

And the viability at 0.025 µM (U87 GBM cell line; Homo sapiens, U87LN, QST 25 nM (log[nM] 1.39794), read-out: Cell viability (fraction of DMSO control))?
Its viability at 0.025 µM is 56.7%.

And the viability at 0.05 µM (U87 GBM cell line; Homo sapiens, U87LN, QST 50 nM (log[nM] 1.69897), read-out: Cell viability (fraction of DMSO control))?
Its viability at 0.05 µM is 31.6%.

And the viability at 0.1 µM (U87 GBM cell line; Homo sapiens, U87LN, QST 100 nM (log[nM] 2), read-out: Cell viability (fraction of DMSO control))?
Its viability at 0.1 µM is 21.5%.

And the viability at 0.25 µM (U87 GBM cell line; Homo sapiens, U87LN, QST 250 nM (log[nM] 2.39794), read-out: Cell viability (fraction of DMSO control))?
The viability at 0.25 µM was 12.8%.

And the viability at 0.5 µM (U87 GBM cell line; Homo sapiens, U87LN, QST 500 nM (log[nM] 2.69897), read-out: Cell viability (fraction of DMSO control))?
The viability at 0.5 µM was 9.84%.

And the viability at 1 µM (U87 GBM cell line; Homo sapiens, U87LN, QST 1000 nM (log[nM] 3), read-out: Cell viability (fraction of DMSO control))?
The viability at 1 µM was 8.54%.

What about the IC50 (U87 GBM cell line; Homo sapiens, U87, 3-5 days) of the same compound?
Its IC50 is 28 nM.

And the “Cell viability (fraction of DMSO control)” value (U87 GBM cell line; U87LN, QST 10 nM (log[nM] 1))?
The value was 0.852 and 0.8354.

What about the “Cell viability (fraction of DMSO control)” value (U87 GBM cell line; U87LN, QST 25 nM (log[nM] 1.39794)) of the same compound?
Its value is 0.6316 and 0.5286.

And the “Cell viability (fraction of DMSO control)” value (U87 GBM cell line; U87LN, QST 50 nM (log[nM] 1.69897))?
The value was 0.3812 and 0.3792.

What about the “Cell viability (fraction of DMSO control)” value (U87 GBM cell line; U87LN, QST 100 nM (log[nM] 2)) of the same compound?
Its value is 0.2379 and 0.236.

And the “Cell viability (fraction of DMSO control)” value (U87 GBM cell line; U87LN, QST 250 nM (log[nM] 2.39794))?
Its value is 0.1476 and 0.1204.

And the “Cell viability (fraction of DMSO control)” value (U87 GBM cell line; U87LN, QST 500 nM (log[nM] 2.69897))?
The value was 0.1063 and 0.09789.

And the “Cell viability (fraction of DMSO control)” value (U87 GBM cell line; U87LN, QST 1000 nM (log[nM] 3))?
The value was 0.08873 and 0.08769.
